Measurements reported in article PMC2584942, “Phase I dose escalation study of telatinib (BAY 57-9352) in patients with advanced solid tumours” (British Journal of Cancer, 2008).

Tests used:
[1] = system: p-glycoprotein transporter; design: method as in printed; details: in vitro studies; background statement, ref not given; cited from earlier work
[2] = system: DLD-1 colon carcinoma; design: method as in printed; details: DLD-1 colon carcinoma model; background statement, ref not given; cited from earlier work
[3] = system: VEGF; assay: Plasma VEGF concentration (ELISA); assay type: in vivo, human
Experimental: […] Samples were analysed using the relevant quantitative enzyme-linked immunosorbent assay (ELISA) (R&D Systems Europe, Oxford, UK) according to the manufacturer's instructions. DCE-MRI was performed at baseline, on day 2 (only cycle 1), and on day 14 of cycles 1–3 to assess tumour blood flow/tumour vessel permeability in a subgroup of patients ([Morgan et al, 2003]).
(§1) To assess the biological activity of telatinib, plasma concentration analyses for the angiogenic markers VEGF, sVEGFR-2, bFGF, PDGF and […] were performed at baseline and during the course of the study. Furthermore, DCE-MRI measurements were done at baseline, on days 2 and 14 of cycle 1 and on day 14 of cycles 2 and 3. Evaluable DCE-MRI results were available for a subgroup of patients treated at dose levels of 300 mg BID or higher.

[4] = system: refractory advanced solid tumours; assay: Tumour response according to RECIST; assay type: in vivo, human; details: number of patients
Experimental: History, physical examinations, haematological and biochemical laboratory evaluations were performed at screening, on days 1, 7 and 14 of cycle 1 and on day 1 of subsequent cycles. Baseline objective tumour measurements were performed within 4 weeks prior to study treatment. Lesions at all disease sites were categorised as either measurable or nonmeasurable. Indicator lesions were selected and monitored throughout the study by the same assessor and using the same technique. Tumour response was evaluated according to the RECIST ([Therasse et al, 2000]).

[5] = design: method as in printed; details: in vitro studies; background statement, ref not given; cited from earlier work
[6] = system: PDGFR-β; design: method as in printed; details: biochemical assay; background statement, ref not given; cited from earlier work
[7] = system: human aortic smooth muscle cells; design: method as in printed; details: background statement, ref not given; cited from earlier work
[8] = system: VEGFR-2; design: method as in printed; details: biochemical assay; background statement, ref not given; cited from earlier work
[9] = system: VEGFR-2 autophosphorylation; design: method as in printed; details: whole-cell assay in vitro; background statement, ref not given; cited from earlier work
[10] = system: sVEGFR-2; assay: Plasma sVEGFR-2 concentration (ELISA); assay type: in vivo, human; details: over the course of the study
Experimental: The effects of telatinib treatment on the plasma concentrations of sVEGFR-2, VEGF and bFGF were determined from blood samples taken at baseline, on day 14 of cycles 1, 2, 4, 6, etc. and at the final visit. Samples were analysed using the relevant quantitative enzyme-linked immunosorbent assay (ELISA) (R&D Systems Europe, Oxford, UK) according to the manufacturer's instructions. DCE-MRI was performed at baseline, on day 2 (only cycle 1), and on day 14 of cycles 1–3 to assess tumour blood flow/tumour vessel permeability in a subgroup of patients ([Morgan et al, 2003]).
as §1

[11] = system: cytochrome P450 (CYP) isoforms; design: method as in printed; details: background statement, ref not given, cited from earlier work
[12] = system: H460 non-small cell lung carcinoma; design: method as in printed; details: H460 non-small cell lung carcinoma model; background statement, ref not given; cited from earlier work
[13] = system: IL-8; assay: Plasma IL-8 level; assay type: in vivo, human; details: after 14 days of multiple dosing
Experimental: The relative changes between cycle 1, day 14 and baseline were calculated for VEGF, sVEGFR-2, bFGF, IL-8, tumour blood flow and tumour vessel permeability as measured by DCE-MRI and diastolic blood pressure (Figure 2C). […] The changes in VEGF and sVEGFR-2 plasma levels, the decrease in tumour blood flow and permeability and the increase in diastolic blood pressure were not predictive for the clinical outcome; there were no statistically significant differences in the change of biomarkers for patients who reached a progression-free survival of >3 months compared with those who stopped treatment during the first 3 months due to progressive disease.

[14] = system: MDA-MB-231 breast carcinoma; design: method as in printed; details: MDA-MB-231 breast carcinoma model; background statement, ref not given; cited from earlier work
[15] = primary tumour site Colorectal, N=25
[16] = primary tumour site Other, N=17
[17] = primary tumour site Pancreatic, N=4

CNC(=O)c1cc(COc2nnc(Nc3ccc(Cl)cc3)c3ccoc23)ccn1 [telatinib]
drug–drug interactions due to modulation of p-glycoprotein transporter activity [1]: unlikely | tumour growth in vivo [2]: potent, dose-dependent reduction in tumour growth | VEGF levels ([3]; day 21 compared to baseline): increased | VEGF plasma levels ([3]; within 8 h after the first telatinib administration): dose-dependent short-term increase | Best response NA (not assessable for response) ([4]; Total, N=71): 1 | Best response PD clin (RECIST) ([4]; Total, N=71): 9 | Best response PD meas (RECIST) ([4]; Total, N=71): 14 | Best response PR (RECIST) ([4]; Total, N=71): 2 | Best response SD (RECIST) ([4]; Total, N=71): 42 | Stabilisation (months) <6 ([4]; Total, N=71): 62 | Stabilisation (months) >6 ([4]; Total, N=71): 5 | Stabilisation (months) >12 ([4]; Total, N=71): 3 | Best response PD clin (RECIST) [4, 15]: 1 | Best response PD meas (RECIST) [4, 15]: 6 | Best response SD (RECIST) [4, 15]: 17 | Stabilisation (months) <6 [4, 15]: 23 | Stabilisation (months) >6 [4, 15]: 1 | Stabilisation (months) >12 [4, 15]: 1 | Best response PD clin (RECIST) ([4]; primary tumour site HCC, N=9): 4 | Best response SD (RECIST) ([4]; primary tumour site HCC, N=9): 5 | Stabilisation (months) <6 ([4]; primary tumour site HCC, N=9): 8 | Stabilisation (months) >6 ([4]; primary tumour site HCC, N=9): 1 | Best response PD meas (RECIST) ([4]; primary tumour site NSCLC, N=4): 1 | Best response SD (RECIST) ([4]; primary tumour site NSCLC, N=4): 3 | Stabilisation (months) <6 ([4]; primary tumour site NSCLC, N=4): 4 | Best response NA (not assessable for response) [4, 16]: 1 | Best response PD clin (RECIST) [4, 16]: 1 | Best response PD meas (RECIST) [4, 16]: 4 | Best response SD (RECIST) [4, 16]: 10 | Stabilisation (months) <6 [4, 16]: 13 | Stabilisation (months) >6 [4, 16]: 3 | Best response PD clin (RECIST) [4, 17]: 2 | Best response PD meas (RECIST) [4, 17]: 2 | Stabilisation (months) <6 [4, 17]: 4 | Best response PD clin (RECIST) ([4]; primary tumour site RCC, N=12): 1 | Best response PD meas (RECIST) ([4]; primary tumour site RCC, N=12): 1 | Best response SD (RECIST) ([4]; primary tumour site RCC, N=12): 7 | Stabilisation (months) <6 ([4]; primary tumour site RCC, N=12): 10 | Stabilisation (months) >12 ([4]; primary tumour site RCC, N=12): 2 | drug–drug interactions due to displacement from plasma protein-binding sites [5]: unlikely | PDGFR-β tyrosine kinase activity [6]: potent inhibitor | PDGF-stimulated growth [7]: inhibited | VEGFR-2 tyrosine kinase activity [8]: potent inhibitor | VEGFR-2 autophosphorylation [9]: inhibited | sVEGFR-2 levels [10]: dose-dependent decrease | main target of metabolic degradation [11]: N-methyl group | risk of drug–drug interactions ([11]; human microsomes, hepatocytes or single CYP isoforms): no or only a very low risk of drug–drug interactions | biotransformation by CYP isoforms ([11]; in vitro): metabolised by various CYP isoforms | tumour growth in vivo [12]: potent, dose-dependent reduction in tumour growth | IL-8 plasma levels [13]: no relevant changes | tumour growth in vivo [14]: potent, dose-dependent reduction in tumour growth
